Experimental data taken from PubChem BioAssay (NCI).
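48-hour exposure; five concentrations; linearly interpolated endpoints. TGI: total growth inhibition.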

Assays:
Experiment in all cases: NCI tumour cell line growth inhibition, 48 h
HCT-15 colon = tested on: HCT-15 colon
OVCAR-4 ovarian = tested on: OVCAR-4 ovarian
K-562 leukemia = tested on: K-562 leukemia
NCI-H460 lung = tested on: NCI-H460 lung
UO-31 renal = tested on: UO-31 renal
786-0 renal = tested on: 786-0 renal
SN12C renal = tested on: SN12C renal
MALME-3M melanoma = tested on: MALME-3M melanoma
KM12 colon = tested on: KM12 colon
HOP-62 NSCLC = tested on: HOP-62 NSCLC
U251 CNS = tested on: U251 CNS

Compound | TGI (HCT-15 colon) [µM] | TGI (OVCAR-4 ovarian) [µM] | TGI (K-562 leukemia) [µM] | TGI (NCI-H460 lung) [µM] | TGI (UO-31 renal) [µM] | TGI (786-0 renal) [µM] | TGI (SN12C renal) [µM] | TGI (MALME-3M melanoma) [µM] | TGI (KM12 colon) [µM] | TGI (HOP-62 NSCLC) [µM] | TGI (U251 CNS) [µM]
COc1ccc(NCC(=O)Nn2c(-c3ccccc3)nc3ccccc3c2=O)cc1 | > 100 | > 100 | > 100 | > 100 | > 100 | 73.6 | > 100 | 70.2 | > 100 | > 100 | 87.1
COc1cc(C(C)O)c[n+](CCC2CNc3ccccc32)c1 (centres undefined) | > 100 | > 100 | > 100 | > 100 | > 100 | > 100 | > 100 | > 100 | > 100 | > 100 | > 100
O=C(O)[C@H](CCC[C@H]1C(=O)O[C@H](c2ccccc2)[C@H](c2ccccc2)N1C(=O)OCc1ccccc1)N[C@@H](c1ccccc1)[C@H](O)c1ccccc1 | > 100 | 75.9 | > 100 | > 100 | > 100 | > 100 | 42.1 | 42.2 | 40.4 | 39 | 31.1
CN(CCc1ccccn1)C(=S)N/N=C(\c1ccccc1)c1ccccn1 | 12.8 | 2.23 | > 100 | 7.07 | 1.83 | 2.68 | 15 | 3.14 | 2.37 | 7.95 | > 36.6
CC1(C)COC2=C(C1)C(=O)c1ccccc1C2=O | 2.41 | 2.9 | 1.52 | 3.64 | 2.21 | 3.29 | 2.76 | 3.29 | 3.23 | 3.45 | 2.78
O=C(NO)NCCCl | > 100 | > 100 | > 100 | > 100 | > 100 | > 100 | > 100 | > 100 | > 100 | > 100 | > 100
C[C@@H]1CC(=O)C[C@@H]2CC[C@H]3[C@@H]4CC[C@H](OC(=O)c5cccc6cc7ccccc7nc56)[C@H]4CC[C@@H]3[C@H]21 | 36.6 | 30.9 | 38 | 30.8 | 31 | 23.5 | 33.1 | 22.8 | 31.5 | 52.3 | 19.8
O=C(/C(=C\I)c1ccccc1)c1ccccc1 | 9.37 | 17.7 | 26.7 | 27.3 | 20.2 | 14.6 | 34.9 | 21.2 | 8.09 | 13.7 | 9.69
Brc1cccc(C2ON=C(c3ccccc3)N2C23CC4CC(CC(C4)C2)C3)c1 (centres undefined) | > 10 | > 10 | > 10 | > 10 | > 10 | > 10 | > 10 | > 10 | > 10 | > 10 | > 10
COc1ccccc1C1(c2c(OC)c(=O)c2=O)SCCCS1 | > 100 | > 100 | > 100 | > 100 | > 100 | > 100 | > 100 | > 100 | > 100 | > 100 | > 100
COC1(CC[C@@H](C)COC2OC(CO)C(O)C(O)C2O)O[C@H]2C[C@H]3[C@@H]4CC=C5C[C@@H](OC6OC(CO)C(O)C(OC7OC(CO)C(O)C(O)C7O)C6OC6OC(C)C(O)C(O)C6O)CC[C@]5(C)[C@H]4CC[C@]3(C)[C@H]2[C@@H]1C (some centres undefined) | 11.8 | 28.4 | > 62.8 | 14.8 | 9.53 | 8.33 | > 56 | 9.29 | 4.36 | 24.3 | 4.13
C=C1C(=O)O[C@H]2C[C@@H]1[C@@H](O)[C@H](O)[C@@H](C)CCCC(C)=CCC[C@@]2(C)O | > 100 | 83.9 | > 100 | 54.1 | 28.5 | 52 | 72.3 | 32.2 | > 100 | > 100 | 64.5
Cc1ccc2nc(-c3ccc(C(C)(C)C)cc3)oc(=O)c2c1 | 54 | 90.3 | 51 | 41.6 | 70 | 68.2 | > 100 | 53.9 | 20.3 | 68.4 | 32.5
CC1(C)OC2OC(C(COS(=O)(=O)C(F)(F)F)N=[N+]=[N-])C(OC(=O)c3ccccc3)C2O1 (centres undefined) | > 100 | > 100 | > 100 | > 100 | > 100 | > 100 | > 100 | > 100 | > 100 | > 100 | > 100
